Laboratory results published in article PMC1874649 (Nucleic Acids Research, 2007).

Test system: cyclin B1
Assay type: cell-based
Settings: complexed with Pep-3, 2 µM, HeLa cells

## control HypNA-pPNA sequence harbouring two mutations: sequence derived from Cyc-B1a harbouring two mismatches, TGC CAT CAG GCT TAG AGG (antisense TGCCATCAGGCTTAGAGG; HypNA-pPNA backbone (hydroxyproline/phosphono PNA), pattern not given here)
  effect on cyclin B1 protein levels (control): no effect
